Measured values taken from patent publication US12011444B2, “N-substituted indole derivatives as PGE2 receptor modulators” (Idorsia Pharmaceuticals Ltd, priority 2015, dated 2024).

What was measured:
PTGER2 (EP2) = PTGER2 (EP2) (Homo sapiens (Human), UniProt P43116); assay: hEP2 b-arrestin assay (PathHunter HEK 293 PTGER2 b-arrestin cells); assay type: cell-based; settings: antagonistic activity on hEP2; mean where measured multiple times
Summary of the method: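 HEK293 cells expressing ProLink-tagged EP2 and EA-fused β-arrestin 2 (enzyme fragment complementation) were seeded 24 h, pre-incubated with compound 15 min at 37 °C, then stimulated with 5 μM PGE2 (final) for 120 min.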

PTRGER4 (EP4) = PTRGER4 (EP4) (Homo sapiens (Human), UniProt P35408); assay: hEP4 b-arrestin assay (PathHunter HEK 293 PTGER4 b-arrestin cells); assay type: cell-based; settings: antagonistic activity on hEP4; mean where measured multiple times
Summary of the method: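 Stably transfected HEK293 cells carrying EP4–ProLink and β-arrestin 2–EA (β-gal fragment complementation), pre-incubated with compound 15 min at 37 °C, then stimulated with PGE2 (20 nM final) for 120 min at 37 °C. Chemiluminescence read after 1 h detection reagent at room temperature; activity per concentration expressed as percent of DMSO control.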

Chain of PTRGER4 (EP4) (P35408 whole entry, looked up, the tested form may be a part): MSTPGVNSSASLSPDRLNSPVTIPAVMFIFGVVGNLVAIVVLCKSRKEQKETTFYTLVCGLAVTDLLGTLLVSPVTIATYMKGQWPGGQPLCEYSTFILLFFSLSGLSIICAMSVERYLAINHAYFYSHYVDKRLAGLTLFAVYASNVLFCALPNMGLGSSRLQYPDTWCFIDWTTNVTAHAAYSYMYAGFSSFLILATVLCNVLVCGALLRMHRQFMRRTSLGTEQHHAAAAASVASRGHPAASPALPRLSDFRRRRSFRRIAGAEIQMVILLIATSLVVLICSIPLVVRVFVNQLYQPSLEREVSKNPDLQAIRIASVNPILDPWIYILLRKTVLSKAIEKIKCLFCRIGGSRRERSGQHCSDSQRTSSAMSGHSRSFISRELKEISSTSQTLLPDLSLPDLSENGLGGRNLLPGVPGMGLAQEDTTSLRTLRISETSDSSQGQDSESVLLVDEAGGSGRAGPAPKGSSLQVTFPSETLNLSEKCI
Chain of PTGER2 (EP2) (P43116 whole entry, the tested form may be a part): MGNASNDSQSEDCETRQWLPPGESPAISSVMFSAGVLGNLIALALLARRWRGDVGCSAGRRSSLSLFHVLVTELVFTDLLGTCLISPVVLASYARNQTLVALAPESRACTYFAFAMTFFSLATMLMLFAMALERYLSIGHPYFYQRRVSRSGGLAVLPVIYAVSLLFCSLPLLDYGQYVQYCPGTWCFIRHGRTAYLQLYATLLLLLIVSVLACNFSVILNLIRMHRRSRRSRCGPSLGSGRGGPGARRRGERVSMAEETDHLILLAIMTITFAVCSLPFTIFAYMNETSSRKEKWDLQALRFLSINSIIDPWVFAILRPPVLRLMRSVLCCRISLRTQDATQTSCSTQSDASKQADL

SMILES | IC50 (PTGER2 (EP2)) [nM] | IC50 (PTRGER4 (EP4)) [nM]
COc1ccc(F)c2c1cc(C)n2CCNc1cc(-c2ccc(CO)c(Cl)c2)ncn1 [compound 27, (2-Chloro-4-{6-[2-(7-fluoro-4-methoxy-2-methyl-indol-1-yl)-ethylamino]-pyrimidin-4-yl}-phenyl)-methanol] | 10 | 90
COc1ccc(F)c2c1cc(C)n2CCNc1cc(-c2ccc(CO)c(F)c2)ncn1 [compound 28, (2-Fluoro-4-{6-[2-(7-fluoro-4-methoxy-2-methyl-indol-1-yl)-ethylamino]-pyrimidin-4-yl}-phenyl)-methanol] | 17 | 249
Cc1ccc(F)c2c1cc(C)n2CCNc1cc(-c2ccc(C(=O)O)c(Cl)c2)ncn1 [compound 29, 2-Chloro-4-{6-[2-(7-fluoro-2,4-dimethyl-indol-1-yl)-ethylamino]-pyrimidin-4-yl}-benzoic acid] | 18 | 575
COc1cc(-c2cc(NCCn3c(C)cc4c(C)ccc(F)c43)ncn2)ccc1CO [compound 30, (4-{6-[2-(7-Fluoro-2,4-dimethyl-indol-1-yl)-ethylamino]-pyrimidin-4-yl}-2-methoxy-phenyl)-methanol] | 34 | 243
Cc1cc(-c2cc(NCCn3c(C)cc4c(C)ccc(F)c43)ncn2)ccc1C(=O)O [compound 31, 4-{6-[2-(7-Fluoro-2,4-dimethyl-indol-1-yl)-ethylamino]-pyrimidin-4-yl}-2-methyl-benzoic acid] | 24 | 543
COc1ccc(F)c2c1cc(C)n2CCNc1cc(-c2ccc(CO)c(C)c2)ncn1 [compound 32, (4-{6-[2-(7-Fluoro-4-methoxy-2-methyl-indol-1-yl)-ethylamino]-pyrimidin-4-yl}-2-methyl-phenyl)-methanol] | 26 | 162
CCSc1cc(-c2cc(NCCn3c(C)cc4ccccc43)ncn2)ccc1C(=O)O [compound 33, 2-Ethylsulfanyl-4-{6-[2-(2-methyl-indol-1-yl)-ethylamino]-pyrimidin-4-yl}-benzoic acid] | 3 | 678
COc1cc(-c2cc(NCCn3c(C)cc4c(C)cccc43)ncn2)ccc1C(=O)O [compound 35, 4-{6-[2-(2,4-Dimethyl-indol-1-yl)-ethylamino]-pyrimidin-4-yl}-2-methoxy-benzoic acid] | 15 | 952
COc1cc(-c2cc(NCCn3c(C)cc4c(OC)cccc43)ncn2)ccc1CO [compound 36, (2-Methoxy-4-{6-[2-(4-methoxy-2-methyl-indol-1-yl)-ethylamino]-pyrimidin-4-yl}-phenyl)-methanol] | 5 | 219
Cc1ccc(F)c2c1cc(C)n2CCNc1cc(-c2ccc(S(=O)(=O)O)cc2)ncn1 [compound 37, 4-{6-[2-(7-Fluoro-2,4-dimethyl-indol-1-yl)-ethylamino]-pyrimidin-4-yl}-benzenesulfonic acid] | 34 | 436
COc1cc(F)cc2c1cc(C)n2CCNc1cc(-c2cc(Cl)c(C(=O)O)s2)ncn1 [compound 38, 3-Chloro-5-{6-[2-(6-fluoro-4-methoxy-2-methyl-indol-1-yl)-ethylamino]-pyrimidin-4-yl}-thiophene-2-carboxylic acid] | 5 | 39
COc1cccc2c1cc(C)n2CCNc1cc(-c2ccc(NC(N)=O)cc2)ncn1 [compound 39, (4-{6-[2-(4-Methoxy-2-methyl-indol-1-yl)-ethylamino]-pyrimidin-4-yl}-phenyl)-urea] | 19 | 515
Cc1ccc(F)c2c1cc(C)n2CCNc1cc(-c2ccc(NC(N)=O)cc2)ncn1 [compound 40, (4-{6-[2-(7-Fluoro-2,4-dimethyl-indol-1-yl)-ethylamino]-pyrimidin-4-yl}-phenyl)-urea] | 86 | 392
Cc1ccc(F)c2c1cc(C)n2CCNc1cc(-c2ccc(C(=O)O)c(N)c2)ncn1 [compound 41] | 101 | 91
COc1ccc(F)c2c1cc(C)n2CCNc1cc(-c2ccc(C(N)=O)cc2)ncn1 [compound 42, 4-{6-[2-(7-Fluoro-4-methoxy-2-methyl-indol-1-yl)-ethylamino]-pyrimidin-4-yl}-benzamide] | 21 | 494
Cc1cc2c(Cl)cc(Cl)cc2n1CCNc1cc(-c2cc(Cl)c(C(=O)O)s2)ncn1 [compound 44] | 5 | 240
Cc1cc(-c2cc(NCCn3c(C)cc4c(C)ccc(F)c43)ncn2)sc1C(=O)O [compound 45] | 14 | 75
Cc1cc2c(Cl)ccc(F)c2n1CCNc1cc(-c2ccc(C(=O)O)cc2)ncn1 [compound 46] | 29 | 970
Cc1ccc(F)c2c1cc(C)n2CCNc1cc(-c2cc(F)c(C(=O)O)s2)ncn1 [compound 47] | 18 | 136
Cc1cc(F)cc2c1cc(C)n2CCNc1cc(-c2cc(F)c(C(=O)O)s2)ncn1 [compound 48] | 24 | 351

SMILES | IC50 (PTGER2 (EP2)) [nM] | IC50 (PTRGER4 (EP4)) [nM]
COc1cccc2c1cc(C)n2CCNc1cc(-c2cc(F)c(C(=O)O)s2)ncn1 [compound 49] | 4 | 235
CCOc1cc(-c2cc(NCCn3c(C)cc4ccccc43)ncn2)sc1C(=O)O [compound 50] | 1 | 161
COc1cccc2c1cc(C)n2CCNc1cc(-c2cc(C)c(C(=O)O)s2)ncn1 [compound 51] | 3 | 143
Cc1n[nH]c2cc(-c3cc(NCCn4c(C)cc5c(C)cc(F)cc54)ncn3)ccc12 [compound 52] | 221 | 583
Cc1cc(F)cc2c1cc(C)n2CCNc1cc(-c2ccc3cnn(C)c3c2)ncn1 [compound 53] | 98 | 350
Cc1nc2cc(-c3cc(NCCn4c(C)cc5c(C)ccc(F)c54)ncn3)ccc2[nH]1 [compound 54] | 125 | 305
Cc1ccc(F)c2c1cc(C)n2CCNc1cc(-c2ccc3nccnc3c2)ncn1 [compound 55, [2-(7-Fluoro-2,4-dimethyl-indol-1-yl)-ethyl]-(6-quinoxalin-6-yl-pyrimidin-4-yl)-amine] | 63 | 570
COc1ccc(Cl)c2c1cc(C)n2CCNc1cc(-c2ccc3[nH]cnc3c2)ncn1 [compound 56] | 151 | 698
COc1ccc(F)c2c1cc(C)n2CCNc1cc(-c2ccc3[nH]cnc3c2)ncn1 [compound 57, [6-(1H-Benzoimidazol-5-yl)-pyrimidin-4-yl]-[2-(7-fluoro-4-methoxy-2-methyl-indol-1-yl)-ethyl]-amine] | 16 | 113
COc1ccc(F)c2c1cc(C)n2CCNc1cc(-c2ccc3cn[nH]c3c2)ncn1 [compound 58, [2-(7-Fluoro-4-methoxy-2-methyl-indol-1-yl)-ethyl]-[6-(1H-indazol-6-yl)-pyrimidin-4-yl]-amine] | 22 | 477
Cc1cc(F)c(F)c2c1cc(C)n2CCNc1cc(-c2ccc3cc[nH]c3c2)ncn1 [compound 59, [2-(6,7-Difluoro-2,4-dimethyl-indol-1-yl)-ethyl]-[6-(1H-indol-6-yl)-pyrimidin-4-yl]-amine] | 213 | 485
COc1cccc2c1cc(C)n2CCNc1cc(-c2ccc3nc(C)oc3c2)ncn1 [compound 60] | 85 | 290
Cc1cc(F)cc2c1cc(C)n2CCNc1cc(-c2ccc3c(c2)CC(=O)N3)ncn1 [compound 61] | 98 | 518
COc1cc(F)cc2c1cc(C)n2CCNc1cc(-c2ccc3c(c2)CCN3)ncn1 [compound 62, [6-(2,3-Dihydro-1H-indol-5-yl)-pyrimidin-4-yl]-[2-(6-fluoro-4-methoxy-2-methyl-indol-1-yl)-ethyl]-amine] | 11 | 32
COc1cc(F)cc2c1cc(C)n2CCNc1cc(-c2ccc3cc[nH]c3c2)ncn1 [compound 63, [2-(6-Fluoro-4-methoxy-2-methyl-indol-1-yl)-ethyl]-[6-(1H-indol-6-yl)-pyrimidin-4-yl]-amine] | 26 | 227
Cc1ccc(F)c2c1cc(C)n2CCNc1cc(-c2ccc3c(c2)CC(=O)N3)ncn1 [compound 64, 5-{6-[2-(7-Fluoro-2,4-dimethyl-indol-1-yl)-ethylamino]-pyrimidin-4-yl}-1,3-dihydro-indol-2-one] | 47 | 231
COc1ccc(Cl)c2c1cc(C)n2CCNc1cc(-c2ccc3c(c2)CCN3)ncn1 [compound 66, [2-(7-Chloro-4-methoxy-2-methyl-indol-1-yl)-ethyl]-[6-(2,3-dihydro-1H-indol-5-yl)-pyrimidin-4-yl]-amine] | 21 | 189
COc1ccc(F)c2c1cc(C)n2CCNc1cc(-c2ccc3c(c2)CCN3)ncn1 [compound 67, [6-(2,3-Dihydro-1H-indol-5-yl)-pyrimidin-4-yl]-[2-(7-fluoro-4-methoxy-2-methyl-indol-1-yl)-ethyl]-amine] | 10 | 59
COc1ccc(F)c2c1cc(C)n2CCNc1cc(-c2ccc3cc[nH]c3c2)ncn1 [compound 68, [2-(7-Fluoro-4-methoxy-2-methyl-indol-1-yl)-ethyl]-[6-(1H-indol-6-yl)-pyrimidin-4-yl]-amine] | 24 | 388
Cc1cc(F)cc2c1cc(C)n2CCNc1cc(-c2ccc(-c3c[nH]cn3)cc2)ncn1 [compound 69, [2-(6-Fluoro-2,4-dimethyl-indol-1-yl)-ethyl]-{6-[4-(1H-imidazol-4-yl)-phenyl]-pyrimidin-4-yl}-amine] | 29 | 94
